The values below come from PMC9609871, “Binding and Kinetic Analysis of Human Protein Phosphatase PP2A Interactions with Caspase 9 Protein and the Interfering Peptide C9h” (Pharmaceutics, 2022).

For test [1], the target named is T1, PP2A (Homo sapiens, UniProt P67775).
T1 construct: purchased LSBio
Put plainly: ELISA: PP2A binding to immobilized biotinylated C9h peptides. The conditions noted are these: OD 450 nm. As to the method: A total of 100 μL of biotinylated peptides diluted at 100 μM in PBS was incubated for 2 h at room temperature in a 96-well Streptavidine-coated plate (Pierce, Illkirch, Strasbourg, France). Wells were washed five times with PBS/0.05% Tween-20 (PBST) and filled with 100 μL of PP2A (Sigma) diluted in PBS/2.5% BSA (Sigma) at the indicated dilutions. The plate was incubated over night at 4 °C and washed five times with PBST. A total of 100 μL of rabbit polyclonal IgG anti-human PP2Aα (Santa Cruz Biotechnology, Heidelberg, Germany) was added at 5 μg/mL in PBS/BSA for 1 h at room temperature. Wells were washed 5 times with PBST and filled with 100 μL of HRP conjugated anti-rabbit IgG (Sigma) diluted at 1:20,000 in PBS/BSA for 1 h at room temperature. Wells were washed 5 times with PBST, and 100 μL of TMB substrate (Pierce) were added and incubated for 15–45 min. The reaction was stopped with 50 μL of 2 N sulphuric acid, and the absorbance was measured at 450 nm on a Multiskan EX plate reader (Thermo Scientific, Illkirch, Strasbourg, France). The Caspase 9 peptide C9h was labelled with biotin at the N-terminal and C-terminal end of the peptide.
On the technique in general: In an ELISA, binding on a coated surface is turned into a signal by an enzyme label.

The target of test [2] is T1, PP2A. As to the kind of experiment: BLI: PP2A binding to immobilized biotinylated C9h-Cter peptide (Streptavidin biosensor). As to the method: Kinetic measurements of PP2A against biotinylated C9h-Cter peptide were run with Streptavidin biosensors (Fortebio, #18-5019). The initial step consisted of coating the biosensor with the peptide diluted in SD at 100 µM for 180 s in 4 µL (not shown) and was followed by three steps for the kinetic study: (i) initial baseline in 300 µL SD for 30 s was measured; (ii) association of PP2A at the indicated concentrations for 180 s in 4 µL was used; and (iii) dissociation step was then monitored in 300 µL SD for 150 s.
Experiments using empty immunosensors (no ligand loaded) were run as control. Sensorgrams were fit globally to a 1:1 binding model by BLItz Pro software, from which the association (kon) and dissociation (koff) rate constants and apparent affinities (KD) were calculated. X2 is the sum of squared deviations between the actual data point and the fitted curve. Values close to zero indicate a good curve fit. The R2 coefficient of determination is a statistical measure of how well the fitted curve approximate the real data points. Values of R2 near 1 indicate a near-perfect fit.
Background: Biolayer interferometry detects binding as a change in optical thickness at a sensor tip.

In test [3] the target is Caspase 9. As to the kind of experiment: BLI: Caspase 9 analyte binding to immobilized PP2A (Protein A biosensor, anti-PP2A). The arrangement: species or system human. The conditions noted are these: summary: close to, Caspase 9 analyte on immobilized PP2A; read-out: affinity, both models. As to the method:
Kinetic analysis was performed based on biolayer interferometry (BLI) by using a BLItz instrument (ForteBio, Bayonne, France) at room temperature. Prior to use, each biosensor was hydrated in sample diluent (SD: PBS1X, pH 7.0, 0.02% Tween 20, 0.1% BSA) for at least 10 min. Kinetic measurements of PP2A/Caspase 9 interactions were run with Protein A biosensors (Fortebio) and consisted of seven steps, all performed in reaction buffer, as follows: (i) initial baseline in 300 µL SD for 30 s was measured; (ii) 4 µL of mouse anti-Caspase 9 or rabbit anti-PP2A were immobilized on the sensor for 150 s at 133 nM; (iii) the immunosensor was washed with 300 µL SD for 120 s; (iv) 4 µL of purified ligand Caspase 9 at 566 nM (Origen) or PP2A at 694 nM (LSBio) were loaded on the immunosensor for 150 s; (v) the ligand-coated immunosensor was washed with 300 µL SD for 120 s; (vi) association of purified analytes diluted in SD at the mentioned concentrations was studied for 150 s in 4 µL; and (vii) dissociation step was then monitored in 300 µL SD for 120 s.
Experiments using empty immunosensors (no ligand loaded) were run as control. Sensorgrams were fit globally to a 1:1 binding model by BLItz Pro software, from which the association (kon) and dissociation (koff) rate constants and apparent affinities (KD) were calculated. […]

Peptide text beside a SMILES is read from it. * marks the point of attachment. Biotin = O=C1N[C@H]2[C@H](CS[C@H]2CCCCC(=O)*)N1

T1 sequence (P67775 whole entry): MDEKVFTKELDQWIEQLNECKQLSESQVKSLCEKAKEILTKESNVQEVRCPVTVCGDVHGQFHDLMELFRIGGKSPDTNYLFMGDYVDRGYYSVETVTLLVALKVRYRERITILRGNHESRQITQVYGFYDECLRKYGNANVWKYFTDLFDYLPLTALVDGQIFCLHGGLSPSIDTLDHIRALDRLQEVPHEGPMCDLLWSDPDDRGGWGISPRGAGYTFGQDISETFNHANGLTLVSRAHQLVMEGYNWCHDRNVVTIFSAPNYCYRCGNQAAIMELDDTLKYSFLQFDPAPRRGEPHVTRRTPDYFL

Usually koff stands for a measure of how fast the partners let go of each other. A high value points to a short-lived complex. With `CC[C@H](C)[C@H](NC(=O)[C@H](CC(=O)O)NC(=O)[C@H](CC(=O)O)NC(=O)[C@H](CC(C)C)NC(=O)[C@@H](NC(=O)[C@H](CCC(=O)O)NC(=O)[C@@H](NC(=O)[C@@H](N)Cc1ccc(O)cc1)C(C)C)[C@@H](C)O)C(=O)N[C@@H](Cc1ccccc1)C(=O)N[C@@H](CCC(=O)O)C(=O)N[C@@H](CCC(N)=O)C(=O)N[C@@H](Cc1c[nH]c2ccccc12)C(=O)N[C@@H](C)C(=O)N[C@@H](Cc1c[nH]cn1)C(=O)N[C@@H](CO)C(=O)N[C@@H](CCC(=O)O)C(=O)N[C@@H](CC(=O)O)C(=O)N[C@@H](CC(C)C)C(=O)N[C@@H](CCCCNC(=O)CCCC[C@@H]1SC[C@@H]2NC(=O)N[C@@H]21)C(=O)O` [C9h-Cter] (H-YVETLDDIFEQWAHSEDLK(Biotin)-OH; N-terminus and C-terminus assumed), in test [1] (PP2A 0.6 μg/mL, duplicate wells), the “signal recognition compared with C9h-Nter” value is recorded as “stronger signal recognition than that of C9h-Nter”. Moreover, in test [1] (peptide 100 μM on streptavidin plate, PP2A 0.6 μg/mL overnight at 4 °C, mean of duplicate wells, representative of two independent experiments, irrelevant biotinylated peptide as negative control), the “binding of PP2A to biotinylated peptide” value is recorded as “bind to the PP2A protein in a specific manner”. The molecule further came in with a koff in test [2] (biotinylated C9h-Cter coated at 100 µM, analyte PP2A 463, 556 and 694 nM, pH 7.0, room temperature, dissociation 150 s, global 1:1 fit) of 0.0087 s⁻¹. In test [2] (immobilized C9h-Cter versus immobilized Caspase 9), the “dissociation rate of PP2A relative to that with immobilized Caspase 9” value was “approximatively one log higher”. In addition, the “affinity for PP2A compared with whole protein Caspase 9” value in test [2] (qualitative comparison) is “slightly lower affinity”.
For the molecule “PP2A: protein phosphatase 2A (LSBio), serine/threonine phosphatase”, the Kd in test [3] was about 100 nM.
